Where a name gives a salt, the structure may show the parent alone. Read-outs that look alike come from different tables or passages of the source. Where only a bound is given, the exact number is not on record here.

Assay [1] concerns the target T1, ROCK2 (Homo sapiens, UniProt O75116).
T1 construct: T7 phage fusion (kinase-tagged phage) or DNA tag for qPCR detection
The experiment in a line: ROCK2 kinase binding affinity, DiscoverX KINOMEscan KdELECT. The note with it: for ROCK2 Selectivity: selectivity for ROCK2 over ROCK1 from Kd. The method, boiled down: (§1)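 Competition binding of DNA- or phage-tagged kinase to immobilised ligand beads, with bound kinase quantified by qPCR of eluates.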

The target of assay [2] is T2, ROCK1 (Homo sapiens, UniProt Q13464).
T2 construct: T7 phage fusion (kinase-tagged phage) or DNA tag for qPCR detection
T2 sequence (Q13464 whole entry, the tested form may be a part): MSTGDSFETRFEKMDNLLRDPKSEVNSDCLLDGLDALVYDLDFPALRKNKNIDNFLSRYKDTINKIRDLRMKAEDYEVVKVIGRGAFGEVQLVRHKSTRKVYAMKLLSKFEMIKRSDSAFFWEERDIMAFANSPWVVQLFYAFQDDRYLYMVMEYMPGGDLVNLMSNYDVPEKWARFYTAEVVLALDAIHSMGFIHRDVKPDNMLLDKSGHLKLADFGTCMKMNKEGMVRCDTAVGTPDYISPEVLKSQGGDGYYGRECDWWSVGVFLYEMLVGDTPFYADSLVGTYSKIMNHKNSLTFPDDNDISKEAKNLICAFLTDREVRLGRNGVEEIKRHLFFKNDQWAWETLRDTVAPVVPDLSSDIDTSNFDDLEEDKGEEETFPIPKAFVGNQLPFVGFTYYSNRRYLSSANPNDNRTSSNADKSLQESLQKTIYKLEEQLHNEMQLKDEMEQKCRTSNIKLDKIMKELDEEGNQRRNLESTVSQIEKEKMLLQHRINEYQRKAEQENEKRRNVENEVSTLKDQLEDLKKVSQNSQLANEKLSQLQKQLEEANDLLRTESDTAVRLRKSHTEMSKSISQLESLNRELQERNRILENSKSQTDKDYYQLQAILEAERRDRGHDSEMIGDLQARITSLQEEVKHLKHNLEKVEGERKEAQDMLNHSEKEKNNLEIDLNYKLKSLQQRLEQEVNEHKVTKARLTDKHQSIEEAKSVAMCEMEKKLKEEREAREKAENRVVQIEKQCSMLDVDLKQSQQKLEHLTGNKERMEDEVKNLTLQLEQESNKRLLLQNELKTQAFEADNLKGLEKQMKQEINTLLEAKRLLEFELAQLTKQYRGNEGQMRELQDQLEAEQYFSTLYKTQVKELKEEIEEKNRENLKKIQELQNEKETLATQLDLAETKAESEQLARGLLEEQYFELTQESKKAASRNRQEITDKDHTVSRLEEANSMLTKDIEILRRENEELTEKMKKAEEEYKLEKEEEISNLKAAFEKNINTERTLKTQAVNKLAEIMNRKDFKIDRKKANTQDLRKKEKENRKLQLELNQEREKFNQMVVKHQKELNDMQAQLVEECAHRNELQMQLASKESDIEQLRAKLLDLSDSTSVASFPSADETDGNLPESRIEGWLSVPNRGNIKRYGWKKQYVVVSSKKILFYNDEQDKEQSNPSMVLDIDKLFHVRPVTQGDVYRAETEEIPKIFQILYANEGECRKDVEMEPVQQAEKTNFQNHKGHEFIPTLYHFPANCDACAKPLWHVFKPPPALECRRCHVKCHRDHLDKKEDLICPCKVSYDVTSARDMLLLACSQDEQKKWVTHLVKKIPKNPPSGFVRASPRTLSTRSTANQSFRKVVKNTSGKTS
As to the kind of experiment: ROCK1 kinase binding affinity, DiscoverX KINOMEscan KdELECT. The note with it: 11-point 3-fold dilution. The method, boiled down:
as §1

Where [3] appears, read: KINOMEscan KdELECT, 11-point 3-fold dilution, read-out: Kd (μM) ROCK2.

T1 sequence (O75116 whole entry, the tested form may be a part): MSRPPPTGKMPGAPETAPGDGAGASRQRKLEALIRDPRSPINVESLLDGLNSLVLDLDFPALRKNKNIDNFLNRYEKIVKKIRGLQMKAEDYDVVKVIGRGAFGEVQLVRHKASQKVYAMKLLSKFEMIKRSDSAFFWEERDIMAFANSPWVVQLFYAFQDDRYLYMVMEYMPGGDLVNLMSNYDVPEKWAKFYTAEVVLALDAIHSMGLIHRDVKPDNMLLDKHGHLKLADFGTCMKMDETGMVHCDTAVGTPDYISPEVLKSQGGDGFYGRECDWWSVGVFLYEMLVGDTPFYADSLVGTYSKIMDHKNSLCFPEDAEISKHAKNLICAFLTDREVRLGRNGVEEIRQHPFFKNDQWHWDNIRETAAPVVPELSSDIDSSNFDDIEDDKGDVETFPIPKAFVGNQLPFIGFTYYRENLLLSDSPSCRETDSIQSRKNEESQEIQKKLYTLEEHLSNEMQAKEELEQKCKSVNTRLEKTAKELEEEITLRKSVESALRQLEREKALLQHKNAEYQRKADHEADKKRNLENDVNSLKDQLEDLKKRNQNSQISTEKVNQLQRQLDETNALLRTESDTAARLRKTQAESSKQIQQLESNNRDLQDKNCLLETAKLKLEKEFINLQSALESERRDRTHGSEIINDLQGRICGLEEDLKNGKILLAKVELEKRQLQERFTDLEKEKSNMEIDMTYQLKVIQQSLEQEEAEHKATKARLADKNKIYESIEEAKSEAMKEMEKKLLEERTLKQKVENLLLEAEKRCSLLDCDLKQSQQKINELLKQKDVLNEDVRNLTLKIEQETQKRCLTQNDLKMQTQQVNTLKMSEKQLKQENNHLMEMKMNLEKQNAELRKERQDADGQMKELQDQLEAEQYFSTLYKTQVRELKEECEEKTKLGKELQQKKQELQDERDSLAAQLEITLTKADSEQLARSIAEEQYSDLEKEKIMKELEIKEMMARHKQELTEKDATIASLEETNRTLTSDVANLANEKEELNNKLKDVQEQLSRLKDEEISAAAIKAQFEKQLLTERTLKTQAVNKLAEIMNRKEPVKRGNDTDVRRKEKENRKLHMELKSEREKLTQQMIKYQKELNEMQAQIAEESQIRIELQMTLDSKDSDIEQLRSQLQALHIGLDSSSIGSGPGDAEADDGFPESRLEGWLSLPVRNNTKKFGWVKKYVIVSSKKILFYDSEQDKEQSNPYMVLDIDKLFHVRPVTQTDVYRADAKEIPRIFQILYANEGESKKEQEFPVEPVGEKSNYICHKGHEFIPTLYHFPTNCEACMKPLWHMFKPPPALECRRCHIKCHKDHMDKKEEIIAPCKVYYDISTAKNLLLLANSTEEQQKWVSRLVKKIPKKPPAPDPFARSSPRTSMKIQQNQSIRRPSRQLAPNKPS

For the compound `COC(=O)[C@H]1CC[C@@H](Nc2nccc(-c3nccc(C#Cc4ccc5[nH]ncc5c4)n3)n2)CC1` [Ex. 91, (1s,4s)-Methyl 4-((4-((1H-indazol-5-yl)ethynyl)-[2,4′-bipyrimidin]-2′-yl)amino)cyclohexanecarboxylate], the figures for the Kd in assay [1] (setting [3]) and in assay [2] were below 0.01 µM and 0.1 to 0.99 µM, respectively. The “ROCK2 Selectivity” value in assay [1] was “** (50 to 150-fold selectivity for ROCK2)”.

Take `C(#Cc1ccnc(-c2ccnc(NCc3ccc4c(c3)CNC4)n2)n1)c1ccc2[nH]ncc2c1` [Ex. 20, 4-((1H-Indazol-5-yl)ethynyl)-N-(isoindolin-5-ylmethyl)-[2,4′-bipyrimidin]-2′-amine trifluoroacetate salt]: the Kd fell in the range of 0.01 to 0.099 µM in assay [1] (setting [3]) and 0.1 to 0.99 µM in assay [2]. In assay [1], the “ROCK2 Selectivity” value was “* (<50-fold selectivity for ROCK2)”.

Regarding `CN(C)C(=O)CNc1nccc(-c2nccc(C#Cc3ccc4[nH]ncc4c3)n2)n1` [Ex. 19, 2-((4-((1H-Indazol-5-yl)ethynyl)-[2,4′-bipyrimidin]-2′-yl)amino)-N,N-dimethylacetamide], the figures for the Kd in assay [1] (setting [3]) and in assay [2] were 0.01 to 0.099 µM and 0.1 to 0.99 µM, respectively. Also, the “ROCK2 Selectivity” value in assay [1] is “** (50 to 150-fold selectivity for ROCK2)”.

Take `C(#Cc1ccnc(-c2ccnc(NCc3ccccc3)n2)n1)c1ccc2[nH]ncc2c1` [Ex. 14, 4-((1H-Indazol-5-yl)ethynyl)-N-benzyl-[2,4′-bipyrimidin]-2′-amine]: the figures for the Kd in assay [1] (setting [3]) and in assay [2] were 0.01 to 0.099 µM and 1 to 9.9 µM, respectively. The “ROCK2 Selectivity” value in assay [1] is given as “* (<50-fold selectivity for ROCK2)”.

Turning to `C[C@H](O)CNc1nccc(-c2nccc(C#Cc3ccc4[nH]ncc4c3)n2)n1` [Ex. 80, (S)-1-((4-((1H-Indazol-5-yl)ethynyl)-[2,4′-bipyrimidin]-2′-yl)amino)propan-2-ol], in assay [1], the Kd lay within 0.1 to 0.99 µM and the “ROCK2 Selectivity” value is on record as “** (50 to 150-fold selectivity for ROCK2)”. In assay [2], the Kd fell in the range of 1 to 9.9 µM.

Take `CC(Nc1nccc(-c2nccc(C#Cc3ccc4[nH]ncc4c3)n2)n1)C1CCCO1` (stereo not drawn) [Ex. 67, 4-((1H-Indazol-5-yl)ethynyl)-N-(1-(tetrahydrofuran-2-yl)ethyl)-[2,4′-bipyrimidin]-2′-amine]: the values for the Kd in assay [1] (setting [3]) and in assay [2] were 0.01 to 0.099 µM and 1 to 9.9 µM, respectively. In addition, the “ROCK2 Selectivity” value in assay [1] was “* (<50-fold selectivity for ROCK2)”.

Turning to `Fc1ccc(CNc2nccc(-c3nccc(C#Cc4ccc5[nH]nc(F)c5c4)n3)n2)nc1` [Ex. 45, 4-((3-Fluoro-1H-indazol-5-yl)ethynyl)-N-((5-fluoropyridin-2-yl)methyl)-[2,4′-bipyrimidin]-2′-amine], the figures for the Kd in assay [1] (setting [3]) and in assay [2] were 0.01 to 0.099 µM and 10 to 100 µM, respectively. Also, in assay [1], the “ROCK2 Selectivity” value is “**** (>500-fold selectivity for ROCK2)”.

Take `CC1(CNc2nccc(-c3nccc(C#Cc4ccc5[nH]ncc5c4)n3)n2)CCCO1` (stereo not drawn) [Ex. 53, 4-((1H-Indazol-5-yl)ethynyl)-N-((2-methyltetrahydrofuran-2-yl)methyl)-[2,4′-bipyrimidin]-2′-amine]: the Kd in assay [1] (setting [3]) was 0.01 to 0.099 µM; in assay [2] it was 1 to 9.9 µM. Further, the “ROCK2 Selectivity” value in assay [1] is reported as “** (50 to 150-fold selectivity for ROCK2)”.

On to `Fc1ncccc1CNc1nccc(-c2nccc(C#Cc3ccc4[nH]nc(F)c4c3)n2)n1` [Ex. 43, 4-((3-Fluoro-1H-indazol-5-yl)ethynyl)-N-((2-fluoropyridin-3-yl)methyl)-[2,4′-bipyrimidin]-2′-amine], for which the values for the dissociation constant Kd in assay [1] (setting [3]) and in assay [2] were 0.01 to 0.099 µM and 10 to 100 µM, respectively. Moreover, the “ROCK2 Selectivity” value in assay [1] is “*** (151 to 500-fold selectivity for ROCK2)”.

As to `OC[C@H]1CC[C@@H](CNc2nccc(-c3nccc(C#Cc4ccc5[nH]ncc5c4)n3)n2)O1` [Ex. 51, ((2R,5S)-5-(((4-((1H-Indazol-5-yl)ethynyl)-[2,4′-bipyrimidin]-2′-yl)amino)methyl)tetrahydrofuran-2-yl)methanol], the figures for the dissociation constant Kd in assay [1] (setting [3]) and in assay [2] were below 0.01 µM and 0.1 to 0.99 µM, respectively. In addition, the “ROCK2 Selectivity” value in assay [1] is “*** (151 to 500-fold selectivity for ROCK2)”.

(Values after patent US20230295131A1, “INHIBITORS OF RHO-ASSOCIATED COILED-COIL KINASE” (Angion Biomedica Corp., priority 2020, published 2023).)
